From paper PMC7211202 (Investigational New Drugs, 2019)
Values joined by “and” are separate entries in the source; they are usually repeats but may differ in a detail not shown here. Equal values may be shown once.

Assay: Patient incidence of adverse events (CTCAE version 4.0)
Type: in vivo
Source text: Each patient was monitored for 21 days for the occurrence of dose-limiting toxicities (DLTs), defined as febrile neutropenia, neutropenic infection, grade 4 neutropenia lasting >7 days, grade ≥ 3 thrombocytopenia lasting >7 days (solid tumors only), grade 3 thrombocytopenia with grade ≥ 2 bleeding (solid tumors only), grade 3 or 4 thrombocytopenia with grade > 1 bleeding (multiple myeloma only), grade 4 thrombocytopenia (solid tumors only), or grade 4 thrombocytopenia lasting >14 days (multiple myeloma only), or as grade ≥ 3 nausea, vomiting, or diarrhea after support; grade 3 fatigue lasting >7 days; any other grade ≥ 3 adverse event (AE); grade ≥ 3 kidney injury (multiple myeloma only), or treatment-related AEs not returning to grade ≤ 1 (solid tumors only) per Common Terminology Criteria for Adverse Events (CTCAE), version 4.0. The MTD was defined as the maximum dose, at which the probability of a DLT was ≤25% in Part 1A and ≤ 33% in Parts 1B and 1C. Treatment continued until disease progression, intolerable toxicity, or withdrawal of consent.
AEs were recorded for all enrolled patients.

[1] = dose escalation, 300 mg (n = 4)
[2] = dose escalation, 360 mg (n = 4)
[3] = dose escalation, 480 mg (n = 6)
[4] = dose escalation, Total (n = 39)

CC(C)[C@@H](CS(=O)(=O)C(C)C)N1C(=O)[C@@](C)(CC(=O)O)C[C@H](c2cccc(Cl)c2)[C@H]1c1ccc(Cl)cc1 [AMG 232]
39%: Treatment-emergent AE: decreased appetite (dose escalation, all patients)
36%: Treatment-emergent AE: thrombocytopenia (dose escalation, all patients) | Treatment-related AE: Thrombocytopenia (dose escalation, all patients)
16 (41) n (%): Treatment-related AE: Fatigue [4]
14 (36) n (%): Treatment-related AE: Thrombocytopenia [4]
67%: Treatment-emergent AE: diarrhea (dose escalation, all patients)
37 (95%) n (%) and 37 (95) n (%): Patients with any treatment-emergent AE [4]
2 (5) n (%): Treatment-related serious AE: Diarrhea [4] | Treatment-related serious AE: Thrombocytopenia (grade 4) [4] | Treatment-related serious AE: Vomiting, Grade 3 [4]
18 (46) n (%): Treatment-related AE: Vomiting [4]
8 (21) n (%): Patients with any treatment-related AE, Grade 4 [4] | Treatment-related AE: Neutropenia [4]
1 (17) n (%): Treatment-related AE: Decrease appetite [3] | Treatment-related AE: Myalgia [3] | Treatment-related serious AE: Hematemesis (grade 3) [3] | Treatment-related serious AE: Neutropenia (grade 4) [3]
4 (100) n (%): Patients with any treatment-emergent AE [2] | Patients with any treatment-related AE [2] | Treatment-related AE: Diarrhea [2] | Treatment-related AE: Nausea [2] | Treatment-related AE: Thrombocytopenia [2]
59%: Treatment-emergent AE: nausea (dose escalation, all patients)
1 (25) n (%): Treatment-related AE: Upper abdominal pain [1] | Treatment-related serious AE: Dehydration (grade 2) [1] | Treatment-related serious AE: Diarrhea [1] | Treatment-related serious AE: Diarrhea, Grade 3 [1] | Treatment-related serious AE: Febrile neutropenia (grade 3) [1] | Treatment-related serious AE: Vomiting, Grade 2 [1] | Treatment-related serious AE: Vomiting, Grade 3 [1] | Treatment-related AE: Abdominal pain [2] | Treatment-related AE: Dysgeusia [2] | Treatment-related AE: Upper abdominal pain [2]
46%: Treatment-related AE: Vomiting (dose escalation, all patients)
3 (75) n (%): Treatment-related AE: Vomiting [1] | Patients with any treatment-related AE, Grade 3 [2] | Treatment-related AE: Decrease appetite [2] | Treatment-related AE: Neutropenia [2] | Treatment-related AE: Vomiting [2]
3 (50) n (%): Patients with any treatment-related AE, Grade 3 [3] | Patients with any treatment-related AE, Grade 4 [3] | Treatment-related AE: Nausea [3] | Treatment-related AE: Neutropenia [3]
1 (3) n (%): Treatment-related serious AE: Abdominal pain (grade 2) [4] | Treatment-related serious AE: Dehydration (grade 2) [4] | Treatment-related serious AE: Diarrhea, Grade 2 [4] | Treatment-related serious AE: Diarrhea, Grade 3 [4] | Treatment-related serious AE: Febrile neutropenia (grade 3) [4] | Treatment-related serious AE: Hematemesis (grade 3) [4] | Treatment-related serious AE: Nausea (grade 3) [4] | Treatment-related serious AE: Neutropenia (grade 4) [4] | Treatment-related serious AE: Non-cardiac chest pain (grade 3) [4] | Treatment-related serious AE: Vomiting, Grade 2 [4]
13 (33) n (%): Patients with any treatment-related AE, Grade 3 [4]
4 (10) n (%): Treatment-related AE: Abdominal pain [4] | Treatment-related AE: Asthenia [4] | Treatment-related AE: Dysgeusia [4] | Treatment-related AE: Myalgia [4] | Treatment-related AE: Upper abdominal pain [4]
26%: Treatment-emergent AE: anemia (dose escalation, all patients) | Treatment-emergent AE: neutropenia (dose escalation, all patients) | Treatment-related AE: decreased appetite (dose escalation, all patients)
2 (33) n (%): Patients with any treatment-related serious AE [3] | Treatment-related AE: Anemia [3] | Treatment-related serious AE: Thrombocytopenia (grade 4) [3]
41%: Treatment-emergent AE: fatigue (dose escalation, all patients) | Treatment-related AE: Fatigue (dose escalation, all patients)
20 (51) n (%): Treatment-related AE: Nausea [4]
0 n (%): Treatment-related serious AE: Abdominal pain (grade 2) [1] | Treatment-related serious AE: Diarrhea, Grade 2 [1] | Treatment-related serious AE: Hematemesis (grade 3) [1] | Treatment-related serious AE: Nausea (grade 3) [1] | Treatment-related serious AE: Neutropenia (grade 4) [1] | Treatment-related serious AE: Non-cardiac chest pain (grade 3) [1] | Treatment-related serious AE: Thrombocytopenia (grade 4) [1] | Patients with any treatment-emergent serious AE [2] | Patients with any treatment-related AE, Grade 5 [2] | Patients with any treatment-related serious AE [2] | Treatment-related AE: Fatigue [2] | Treatment-related serious AE: Abdominal pain (grade 2) [2] | Treatment-related serious AE: Dehydration (grade 2) [2] | Treatment-related serious AE: Diarrhea [2] | Treatment-related serious AE: Diarrhea, Grade 2 [2] | Treatment-related serious AE: Diarrhea, Grade 3 [2] | Treatment-related serious AE: Febrile neutropenia (grade 3) [2] | Treatment-related serious AE: Hematemesis (grade 3) [2] | Treatment-related serious AE: Nausea (grade 3) [2] | Treatment-related serious AE: Neutropenia (grade 4) [2] | Treatment-related serious AE: Non-cardiac chest pain (grade 3) [2] | Treatment-related serious AE: Thrombocytopenia (grade 4) [2] | Treatment-related serious AE: Vomiting [2] | Treatment-related serious AE: Vomiting, Grade 2 [2] | Treatment-related serious AE: Vomiting, Grade 3 [2] | Patients with any treatment-related AE, Grade 5 [3] | Treatment-related AE: Abdominal pain [3] | Treatment-related AE: Asthenia [3] | Treatment-related AE: Dysgeusia [3] | Treatment-related AE: Upper abdominal pain [3] | Treatment-related serious AE: Abdominal pain (grade 2) [3] | Treatment-related serious AE: Dehydration (grade 2) [3] | Treatment-related serious AE: Diarrhea [3] | Treatment-related serious AE: Diarrhea, Grade 2 [3] | Treatment-related serious AE: Diarrhea, Grade 3 [3] | Treatment-related serious AE: Febrile neutropenia (grade 3) [3] | Treatment-related serious AE: Nausea (grade 3) [3] | Treatment-related serious AE: Non-cardiac chest pain (grade 3) [3] | Treatment-related serious AE: Vomiting [3] | Treatment-related serious AE: Vomiting, Grade 2 [3] | Treatment-related serious AE: Vomiting, Grade 3 [3] | Patients with any treatment-related AE, Grade 5 [4]
51%: Treatment-emergent AE: vomiting (dose escalation, all patients) | Treatment-related AE: Nausea (dose escalation, all patients)
10 (26) n (%): Treatment-related AE: Decrease appetite [4]
21 n: Patients discontinuing treatment due to AEs (entire study (107 patients))
21%: Treatment-emergent AE: abdominal pain (dose escalation, all patients) | Treatment-related AE: Neutropenia (dose escalation, all patients)
14 (36%) n (%) and 14 (36) n (%): Patients with any treatment-emergent serious AE [4]
3 (8) n (%): Treatment-related serious AE: Vomiting [4]
64%: Treatment-related AE: Diarrhea (dose escalation, all patients)
25 (64) n (%): Treatment-related AE: Diarrhea [4]
5 (13) n (%): Treatment-related AE: Anemia [4]
4 (67) n (%): Patients with any treatment-emergent serious AE [3] | Treatment-related AE: Fatigue [3] | Treatment-related AE: Vomiting [3]
2 (50) n (%): Treatment-related serious AE: Vomiting [1] | Patients with any treatment-related AE, Grade 4 [2] | Treatment-related AE: Anemia [2] | Treatment-related AE: Asthenia [2] | Treatment-related AE: Myalgia [2]
5 (83) n (%): Treatment-related AE: Thrombocytopenia [3]
6 (100) n (%): Patients with any treatment-emergent AE [3] | Patients with any treatment-related AE [3] | Treatment-related AE: Diarrhea [3]
